According to ChEMBL document CHEMBL1153665, “Development of L-689,065 - the prototype of a new class of potent 5-lipoxygenase inhibitors” (Bioorg Med Chem Lett, 1992):

Key:
[1] = target: T1, Polyunsaturated fatty acid 5-lipoxygenase (Rattus norvegicus, UniProt P12527); assay: Compound was tested for its inhibitory activity against 5-lipoxygenase in rat.
T1 sequence (P12527 whole entry): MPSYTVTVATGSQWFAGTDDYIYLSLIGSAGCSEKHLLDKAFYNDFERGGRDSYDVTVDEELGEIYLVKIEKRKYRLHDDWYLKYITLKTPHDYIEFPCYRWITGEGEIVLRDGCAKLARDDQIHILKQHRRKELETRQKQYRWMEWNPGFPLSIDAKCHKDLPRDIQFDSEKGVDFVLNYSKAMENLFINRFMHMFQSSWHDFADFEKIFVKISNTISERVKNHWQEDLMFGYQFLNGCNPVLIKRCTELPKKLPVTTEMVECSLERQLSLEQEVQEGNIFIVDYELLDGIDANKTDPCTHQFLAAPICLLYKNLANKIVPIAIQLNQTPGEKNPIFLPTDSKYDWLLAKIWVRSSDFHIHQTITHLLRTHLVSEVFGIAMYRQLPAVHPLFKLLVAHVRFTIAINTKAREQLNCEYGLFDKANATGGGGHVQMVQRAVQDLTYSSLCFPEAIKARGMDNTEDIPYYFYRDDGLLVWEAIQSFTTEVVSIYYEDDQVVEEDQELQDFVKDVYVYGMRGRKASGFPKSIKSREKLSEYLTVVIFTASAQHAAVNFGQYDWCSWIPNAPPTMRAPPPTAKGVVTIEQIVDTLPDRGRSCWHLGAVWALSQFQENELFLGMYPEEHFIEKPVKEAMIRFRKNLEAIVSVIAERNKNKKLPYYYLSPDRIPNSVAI

[2] = target: T2, Arachidonate 5-lipoxygenase-activating protein (Homo sapiens, UniProt P20292); assay: Compound was tested for its binding activity towards 5-lipoxygenase activating protein (FLAP)
T2 sequence (P20292 whole entry): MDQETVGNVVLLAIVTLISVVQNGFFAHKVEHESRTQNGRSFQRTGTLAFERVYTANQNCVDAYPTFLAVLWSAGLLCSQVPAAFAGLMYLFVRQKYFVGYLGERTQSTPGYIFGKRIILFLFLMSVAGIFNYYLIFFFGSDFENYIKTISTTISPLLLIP

[3] = system: Rattus norvegicus; assay: Compound was tested for inhibition of dyspnea at 0.5 mg/kg when administered perorally in rats; assay type: functional; settings: route oral
[4] = system: Rattus norvegicus; assay: Time to reach maximum concentration following oral administration of 200 mg/kg in rat; value ranges from 2-4; assay type: ADME, organism-based; design: dose 200 mg/kg, route oral; settings: in vivo
[5] = Maximum plasma concentration in rats when a oral dose of 200 mg/kg was given; assay type: ADME, organism-based; design: dose 200 mg/kg, route oral; settings: rat

IC50 [1] [nM] | IC50 [2] [nM] | T max [4] [h] | Cmax [5] [µM] | Compound | inhibition in vivo at 0.5 mg/kg [3] [%]
700 | 9.3 |  |  | Cc1c(CC(C)(C)C(=O)O)n(Cc2ccc(Cl)cc2)c2ccc(OCc3ccc(-c4ccccc4)cn3)cc12 | 
> 5000 | 2.8 |  |  | Cc1c(CC(C)(C)C(=O)O)n(Cc2ccc(Cl)cc2)c2ccc(OCc3ccc4ccccc4n3)cc12 | 
> 8000 | 27 |  |  | C=CCc1c(OCc2ccc3ccccc3n2)ccc2c1c(SC(C)(C)C)c(CC(C)(C)C(=O)O)n2Cc1ccc(Cl)cc1 | 
300 | 19 |  |  | CC1Cc2c(OCc3ccc4ccccc4n3)ccc3c2c(c(CC(C)(C)C(=O)O)n3Cc2ccc(Cl)cc2)S1 (centres undefined) | 
60 | 22000 | 2 | 5 | CC1Cc2c(OCc3ccc(-c4ccccc4)cn3)ccc3c2c(c(CC(C)(C)C(=O)O)n3Cc2ccc(Cl)cc2)S1 (racemic) | 55
150 | > 10000 |  |  | CC1Cc2c(OCc3ccc(-c4ccccc4)cn3)ccc3c2c(c(CC(C)(C)C(=O)O)n3Cc2ccc(Cl)cc2)S1 (single isomer, unassigned; (+)) | 
40 | > 10000 |  |  | CC1Cc2c(OCc3ccc(-c4ccccc4)cn3)ccc3c2c(c(CC(C)(C)C(=O)O)n3Cc2ccc(Cl)cc2)S1 (single isomer, unassigned; (-)) | 
> 2000 | 2.3 |  |  | CC(C)(C)Sc1c(CC(C)(C)C(=O)O)n(Cc2ccc(Cl)cc2)c2ccc(OCc3ccc4ccccc4n3)cc12 [QUIFLAPON] | 
